We go through 17 compounds from EP4741392A1, “1H-PYRAZOLO[4,3-C]PYRIDINE COMPOUND, AND COMPOSITION THEREOF AND USE THEREOF” (Shenzhen TargetRx Co., Ltd., priority 2023, dated 2025).

What all share (format): cell-based
In one experiment the test system is Ramos cells with BTK WT. Put plainly: Phosphor-BTK(Y223) assay, suspended cells. As to conditions: Homo sapiens, Ramos, phosphorylated BTK Y223, Ramos cells with BTK WT. How it is done: (§1) The purpose of this assay was to simply, quickly and directly detect the level of endogenous BTK phosphorylation in cells.
The steps for handling suspended cells were as follows: • 1) Ramos cells with BTK WT (2.5 k/well), BTK C481S (2.5 k/well), or BTK T474I (2.5 k/well) were plated in a 96-well plate, respectively. A compound of different concentration gradients was added using Tecan D300e, and the plate was incubated at 37 °C and 5% CO2 for 2 hours. • 2) 8.33 µL of 20 mM Na3VO4 was added to bring the final concentration to 5 mM, and the plate was incubated at 37 °C and 5% CO2 for 3 h. • 3) During the incubation, the following reagents were prepared: • 4x added lysis buffer: 24 vol 4x lysis buffer + 1 vol 25x blocking reagent. • p-BTK (Y223) cryptate-antibody and p-BTK (Y223) d2-antibody working solutions: 1 volume of each cryopreserved antibody (stored at - 20 °C) was added to 38 times the volume of assay buffer (stored at 4 °C), and mixed well. • 4) After the incubation was completed, 11.1 µL of 4x added lysis buffer was directly added. The plate was shaken at 800 rpm at room temperature for 30 min. • 5) The lysate was mixed well and 16 µL of it was transferred to a 384-well plate. 1 × added lysis buffer was used as a blank control. • 6) 4 µL of pre-mixed working solutions of the two antibodies (cryptate Ab:d2 Ab = 1:1) was added, and the plate was sealed. • 7) The plate was incubated at room temperature overnight. • 8) The plate was read at 665nm and 620nm using Biotek cytation3.0 microplate reader, and the ratio of 665/620nm of each well was calculated. Data analysis: IC50 was calculated using GraphPad Prism 7.0 software.
(§2) The IC50 (half-maximal phosphorylation inhibitory concentration) of the phosphorylated BTK Y223 of the compound was obtained using the following nonlinear fitting formula: Y = Bottom + (Top−Bottom)/(1+10^(∧)((LogIC50−X)*HillSlope)) [formula] • X: Log value of the compound concentration • Y: Inhibition rate (% inhibition) • Top: Maximum response • Bottom: Baseline response • HillSlope: Slope of the curve
(§3) The formula for calculating cell phosphorylation inhibition rate (inhibition rate %) was: Inhibition rate% = 1−(eachconcentrationwell-blankwell)/(positivecontrolwell−blankwell) [formula]

For another experiment, the system named is NIH/3T3 BTK WT cells. In words: Phosphor-BTK(Y223) assay, adherent cells. As to conditions: Mus musculus, NIH3T3, phosphorylated BTK Y223, NIH/3T3 BTK WT cells; read-out: NIH/3T3 BTK-WT pBTK. How it is done:
as §1
(§4) The steps for handling adherent cells were as follows: • 1) NIH/3T3 BTK WT cells (7.5 k/well) and NIH/3T3 BTK C481S cells (10 k/well) were plated in a 96-well plate, respectively, and cultured at 37 °C and 5% CO2 overnight. • 2) A 3-fold final concentration gradient dilution of a compound was prepared, and 50 µL of it was taken and added to 100 µL of cell culture. 0.5% DMSO was used as a positive control for cell growth. • 3) The plate was incubated at 37 °C and 5% CO2 for 0.5 h. • 4) Na3VO4 at a final concentration of 1mM was added, and the plate was incubated at 37 °C and 5% CO2 for 2 hours. • 5) During the incubation, the following reagents were prepared: • 1x added lysis buffer: 3 vol ddH2O + 1 vol 4x lysis buffer + 100x blocking reagent. • p-BTK (Y223) cryptate-antibody and p-BTK (Y223) d2-antibody working solutions: 1 volume of each cryopreserved antibody (stored at - 20 °C) was added to 19 times the volume of assay buffer (stored at 4 °C). • 6) After the incubation was completed, the medium was removed and 50 µL of 1x added lysis buffer was added. The plate was centrifuged at 500 rpm at room temperature for 30 min. • 7) The lysate was mixed well and 16 µL of it was transferred to a 384-well plate. 1 × added lysis buffer was used as a blank control. • 8) 4 µL of pre-mixed working solutions of the two antibodies (cryptate Ab:d2 Ab = 1:1) was added, and the plate was sealed. • 9) The plate was incubated at room temperature overnight. 10) The plate was read at 665nm and 620nm using Biotek cytation3.0 microplate reader, and the ratio of 665/620nm of each well was calculated.
as §2, §3

The next experiment concerns NIH/3T3 BTK C481S cells. Put plainly: Phosphor-BTK(Y223) assay, adherent cells. Particulars: Mus musculus, NIH3T3, phosphorylated BTK Y223, NIH/3T3 BTK C481S cells; read-out: NIH/3T3 BTK-C481S pBTK. How it is done: as §1, §4, §2, §3

Bounds are passed on as bounds.

Turning to `COc1ccc(F)cc1C(=O)NCc1ccc(-c2nc(C(C)C(F)(F)F)c(Br)c3[nH]nc(N)c23)cc1` (centres unmarked) [Example 4, N-(4-(3-amino-7-bromo-6-(1,1,1-trifluoropropan-2-yl)-1H-pyrazolo[4,3-c]pyridin-4-yl)benzyl)-5-fluoro-2-methoxybenzamide], the IC50 in the experiment on Ramos cells with BTK WT, in the experiment on NIH/3T3 BTK WT cells and with NIH/3T3 BTK C481S cells was over 50 nM throughout.
`COc1ccc(F)cc1C(=O)NCc1ccc(-c2nc(C(C)C(F)(F)F)c(-c3ccccn3)c3[nH]nc(N)c23)cc1` (centres unmarked) [Example 5, N-(4-(3-amino-7-(pyridin-2-yl)-6-(1,1,1-trifluoropropan-2-yl)-1H-pyrazolo[4,3-c]pyridin-4-yl)benzyl)-5-fluoro-2-methoxybenzamide]: the IC50 in the experiment on Ramos cells with BTK WT, with NIH/3T3 BTK WT cells and in the experiment with NIH/3T3 BTK C481S cells was over 50 nM throughout.
Take `COc1ccc(F)cc1C(=O)NCc1ccc(-c2nc(C(C)C(F)(F)F)c(-c3cnccn3)c3[nH]nc(N)c23)cc1` (centres unmarked) [Example 8, N-(4-(3-amino-7-(pyrazin-2-yl)-6-(1,1,1-trifluoropropan-2-yl)-1H-pyrazolo[4,3-c]pyridin-4-yl)benzyl)-5-fluoro-2-methoxybenzamide]: the IC50 in the experiment on Ramos cells with BTK WT, with NIH/3T3 BTK WT cells and in the experiment on NIH/3T3 BTK C481S cells was over 50 nM each time.
Turning to `COc1ccc(F)cc1C(=O)NCc1ccc(-c2nc(C(C)C(F)(F)F)c(-c3cncnc3)c3[nH]nc(N)c23)cc1` (centres unmarked) [Example 10, N-(4-(3-amino-7-(pyrimidin-5-yl)-6-(1,1,1-trifluoropropan-2-yl)-1H-pyrazolo[4,3-c]pyridin-4-yl)benzyl)-5-fluoro-2-methoxybenzamide], the IC50 in the experiment with Ramos cells with BTK WT, in the experiment with NIH/3T3 BTK WT cells and with NIH/3T3 BTK C481S cells was over 50 nM each time.
As for `COc1ccc(F)cc1C(=O)NCc1ccc(-c2nc(C(C)C(F)(F)F)c(-c3ccnnc3)c3[nH]nc(N)c23)cc1` (centres unmarked) [Example 11, N-(4-(3-amino-7-(pyridazin-4-yl)-6-(1,1,1-trifluoropropan-2-yl)-1H-pyrazolo[4,3-c]pyridin-4-yl)benzyl)-5-fluoro-2-methoxybenzamide], the IC50 in the experiment with Ramos cells with BTK WT, in the experiment on NIH/3T3 BTK WT cells and in the experiment with NIH/3T3 BTK C481S cells was over 50 nM in each case.
On to `COc1ccc(F)cc1C(=O)NCc1ccc(-c2nc(C(C)C(F)(F)F)c(-c3ccc(C(F)(F)F)cn3)c3[nH]nc(N)c23)cc1` (centres unmarked) [Example 12, N-(4-(3-amino-7-(5-(trifluoromethyl)pyridin-2-yl)-6-(1,1,1-trifluoropropan-2-yl)-1H-pyrazolo[4,3-c]pyridin-4-yl)benzyl)-5-fluoro-2-methoxybenzamide], for which the IC50 in the experiment with Ramos cells with BTK WT, in the experiment on NIH/3T3 BTK WT cells and in the experiment with NIH/3T3 BTK C481S cells was over 50 nM each time.
As for `COc1ccc(F)cc1C(=O)NCc1ccc(-c2nc(C(C)C(F)(F)F)c(-c3ccc(F)cn3)c3[nH]nc(N)c23)cc1` (centres unmarked) [Example 13, N-(4-(3-amino-7-(5-fluoropyridin-2-yl)-6-(1,1,1-trifluoropropan-2-yl)-1H-pyrazolo[4,3-c]pyridin-4-yl)benzyl)-5-fluoro-2-methoxybenzamide], the IC50 with Ramos cells with BTK WT, in the experiment with NIH/3T3 BTK WT cells and in the experiment on NIH/3T3 BTK C481S cells was over 50 nM in each case.
For the compound `COc1ccc(F)cc1C(=O)NCc1ccc(-c2nc(C(C)C(F)(F)F)c(-c3ccccc3)c3[nH]nc(N)c23)cc1` (centres unmarked) [Example 14, N-(4-(3-amino-7-phenyl-6-(1,1,1-trifluoropropan-2-yl)-1H-pyrazolo[4,3-c]pyridin-4-yl)benzyl)-5-fluoro-2-methoxybenzamide], the IC50 in the experiment with Ramos cells with BTK WT, with NIH/3T3 BTK WT cells and with NIH/3T3 BTK C481S cells was over 50 nM in each case.
In the case of `COc1ccc(F)cc1C(=O)NCc1ccc(-c2ncc(-c3cncnc3)c3[nH]nc(N)c23)cc1` [Example 16, N-(4-(3-amino-7-(pyrimidin-5-yl)-1H-pyrazolo[4,3-c]pyridin-4-yl)benzyl)-5-fluoro-2-methoxybenzamide], the IC50 in the experiment with Ramos cells with BTK WT, with NIH/3T3 BTK WT cells and in the experiment with NIH/3T3 BTK C481S cells was over 50 nM each time.
Consider `COc1ccc(F)cc1C(=O)NCc1ccc(-c2ncc(-c3ccnnc3)c3[nH]nc(N)c23)cc1` [Example 20, N-(4-(3-amino-7-(pyridazin-4-yl)-1H-pyrazolo[4,3-c]pyridin-4-yl)benzyl)-5-fluoro-2-methoxybenzamide], for which the IC50 in the experiment on Ramos cells with BTK WT, in the experiment on NIH/3T3 BTK WT cells and with NIH/3T3 BTK C481S cells was over 50 nM throughout.
As for `COc1ccc(F)cc1C(=O)NCc1ccc(-c2ncc(-c3ccnn3C)c3[nH]nc(N)c23)cc1` [Example 32, N-(4-(3-amino-7-(1-methyl-1H-pyrazol-5-yl)-1H-pyrazolo[4,3-c]pyridin-4-yl)benzyl)-5-fluoro-2-methoxybenzamide], the IC50 with Ramos cells with BTK WT, in the experiment on NIH/3T3 BTK WT cells and in the experiment with NIH/3T3 BTK C481S cells was over 50 nM in each case.
As to `COc1ccc(F)cc1C(=O)NCc1ccc(-c2ncc(-c3cnn4ccccc34)c3[nH]nc(N)c23)cc1` [Example 33, N-(4-(3-amino-7-(pyrazolo[1,5-a]pyridin-3-yl)-1H-pyrazolo[4,3-c]pyridin-4-yl)benzyl)-5-fluoro-2-methoxybenzamide], the IC50 in the experiment on Ramos cells with BTK WT, with NIH/3T3 BTK WT cells and in the experiment with NIH/3T3 BTK C481S cells was over 50 nM in each case.
With `COc1ccc(F)cc1C(=O)NCc1ccc(-c2ncc(-c3cnc4ccnn4c3)c3[nH]nc(N)c23)cc1` [Example 34, N-(4-(3-amino-7-(pyrazolo[1,5-a]pyrimidin-6-yl)-1H-pyrazolo[4,3-c]pyridin-4-yl)benzyl)-5-fluoro-2-methoxybenzamide], the IC50 with Ramos cells with BTK WT, in the experiment with NIH/3T3 BTK WT cells and in the experiment with NIH/3T3 BTK C481S cells was over 50 nM in each case.
On to `COc1ccc(F)cc1C(=O)NCc1ccc(-c2ncc(-c3cccnn3)c3[nH]nc(N)c23)cc1` [Example 40, N-(4-(3-amino-7-(pyridazin-3-yl)-1H-pyrazolo[4,3-c]pyridin-4-yl)benzyl)-5-fluoro-2-methoxybenzamide], for which the IC50 in the experiment on Ramos cells with BTK WT was 10 to 50 nM; in the experiment with NIH/3T3 BTK WT cells, 10 to 50 nM; in the experiment on NIH/3T3 BTK C481S cells it was over 50 nM.
As to `COc1ccc(F)cc1C(=O)NCc1ccc(-c2ncc(-c3cnc4ccccn34)c3[nH]nc(N)c23)cc1` [Example 55, N-(4-(3-amino-7-(imidazo[1,2-a]pyridin-3-yl)-1H-pyrazolo[4,3-c]pyridin-4-yl)benzyl)-5-fluoro-2-methoxybenzamide], the IC50 in the experiment with Ramos cells with BTK WT, in the experiment with NIH/3T3 BTK WT cells and in the experiment with NIH/3T3 BTK C481S cells was over 50 nM throughout.
Turning to `COc1ccc(F)cc1C(=O)NCc1ccc(-c2ncc(-c3cnc4ncccn34)c3[nH]nc(N)c23)cc1` [Example 63, N-(4-(3-amino-7-(imidazo[1,2-a]pyrimidin-3-yl)-1H-pyrazolo[4,3-c]pyridin-4-yl)benzyl)-5-fluoro-2-methoxybenzamide], the IC50 in the experiment on Ramos cells with BTK WT, in the experiment with NIH/3T3 BTK WT cells and with NIH/3T3 BTK C481S cells was over 50 nM in each case.
`COc1ccc(F)cc1C(=O)NCc1ccc(-c2cc(C(C)C(F)(F)F)cc3[nH]nc(N)c23)cc1` (centres unmarked) [Example 86, N-(4-(3-amino-6-(1,1,1-trifluoropropan-2-yl)-1H-indazol-4-yl)benzyl)-5-fluoro-2-methoxybenzamide]: the IC50 in the experiment with NIH/3T3 BTK WT cells and in the experiment with NIH/3T3 BTK C481S cells was over 50 nM throughout.
